Where two headings read alike, the source gives them in different places.
Tests used:
[1] = system: 3D GBM bioprints (example B21_012); assay: Cisplatin treatment of 3D GBM bioprinted constructs, CellTiter-Glo viability; assay type: cell-based, human
Protocol: (§1) Cell cultures were exposed to the indicated cisplatin concentrations for 72 h. Cell viability was then assessed using the luminescence-based CellTiter-Glo Assay. Data are presented as means±SEM (n≥2). For 2D cell cultures and 3D tumorspheres FIGS. 7A and 7B) dose-response curves were fitted (nonlinear regression) to calculate the IC50 values (see: Table 1 in the examples section). In the 3D bioprint experiment (FIG. 7B) statistically significant difference between untreated control and cisplatin treatment was determined using an unpaired t-test (**** p≤0.0001).
Bioprinted constructs were treated with 50, 100, 200, or 400 μM cisplatin (CDDP) for 72 h. Viability was assessed using CellTiter-Glo assay.
Tumorspheres, obtained from a coculture of U87MG (60%), microglia HMC3 (28%), GBM-CAF (10%) and GBM-CSC (2%) after 14 days in 5×96-well round bottom low adhesion plates, were harvested by sedimenting in Falcon tube then transferred into a 1 ml syringe. The culture medium was eliminated by gravitation. The total volume of tumorsphere pellet was 50 μL. 270 μL of bioink Cellink Laminink 411 were transferred into another 1 ml syringe; a connector was used to link both syringes. Mixing the bioink and tumorspheres was done by pushes from one side to another. The homogenous mixture tumorspheres-bioink (˜320 μL) was transferred in 3 ml syringe preloaded with 1 mL start ink. […]

[2] = system: 3D GBM tumorspheres (spheroids) from coculture of U-87 MG, GBM CSC, GBM CAF and microglia (HMC3); assay: Cisplatin dose-response in 3D GBM tumorspheres, CellTiter-Glo viability; assay type: cell-based
Protocol: as §1
In the next step, response to cisplatin was tested in 3D GBM spheroids (see FIG. 7B). […] Nevertheless, cisplatin was effective in 3D GBM tumourspheres (spheroids) as well.

[3] = system: glioblastoma cancer stem cells (GBM CSC); assay: Cisplatin dose-response in 2D culture, CellTiter-Glo viability; assay type: cell-based
Protocol: as §1
(§2) Both cell lines were deemed sensitive to cisplatin, however, higher drug doses were required to initiate death of cancer stem cells.

[4] = system: U-87 MG glioblastoma cell line; assay: as above; assay type: cell-based
Protocol: as §1, §2

[5] = system: MDA-MB-231 triple negative breast cancer cells; assay: Doxorubicin dose-response in 2D cell culture; details: for cell viability (in comparison to an untreated control sample): 2D cell culture
Protocol: The MDA-MB-231 cells were cultured in Leibovitz's L-15 Medium (ATCC®) and fetal bovine serum was added to a final concentration of 10%, and in accordance with the general procedure outlined in MDA-MB-231 (HTB-26™) Product sheet from ATCC® (https://www.atcc.org/products/htb-26).
Cells were exposed to a range of doxorubicin concentrations for 72 hours and sensitivity to this drug was evaluated by determining a concentration that kills 50% of the cells (IC50).

[6] = system: bioprinted construct BB21-001; assay: LDH release (LDH-Glo) cytotoxicity in bioprinted breast cancer construct; assay type: cell-based, human; details: 0.2 and 1 μM doxorubicin, 72 h time-point
Protocol: The 15-day old bioprinted constructs were treated with 0.2 and 1 μM Doxorubicin (Doxo). Medium samples were collected at 24, 48 and 72 h time points to assess the Lactate Dehydrogenase (LDH) release, which is a marker of cytotoxicity. LDH-Glo assay was used. Data are presented as means±SD, n=3.
Cytotoxicity of doxorubicin was also assessed by LDH release detection.

[7] = system: bioprinted construct BB21-001 (MDA-MB-231, hMAds, CAF, BCSC); assay: Doxorubicin treatment of single-cell bioprinted breast cancer construct, RealTime-Glo MT viability; assay type: cell-based, human
Protocol: The 15-day old bioprinted constructs were treated with 0.2 and 1 μM Doxorubicin (Doxo) for 72 h. Cell viability was assessed using RealTime-Glo MT before treatment (day 0) and after 72 h of treatment. To assess the doxorubicin effects after 72 h, a percentage of day 0 viability was calculated for each construct. Statistically significant differences were determined using one-way ANOVA with Tukey's post-hoc test, and indicated as follows: *** p≤0.001, **** p≤0.0001, ns—not significant.
Each cell line (MDA-MB-231, hMAds, CAF and BCSC) was harvested, counted and then the required number of cells was transferred into a 15 ml Falcone tube. The cells were spun down then resuspended into 20 μL of complete 3D Tumorsphere Medium XF (obtained from PromCell®) and loaded into a syringe preloaded with 200 μL of Laminink 411 (cells corresponded to 10% of the bioink volume). Then mixed for 550 times. The homogeneous mixture was transferred to a syringe and then set to bioprint (the extrusion volume of each bioprint being set to 3 uL (approximately 50000 cells per droplet).

Row | Structure (SMILES) | IC50 ([1]; 3D Bioprinted tumour, 72 h, read-out: Cisplatin IC50) | IC50 ([1]; printed construct, read-out: IC50 value) | effectiveness of cisplatin ([2]; 3D GBM tumourspheres) | IC50 ([2]; 3D spheroids (tumourspheres)) | IC50 ([3]; 2D GBM CSC, 72 h, read-out: Cisplatin IC50 (Mean ± SEM)) | sensitivity to cisplatin ([3]; 2D culture, 72 hours, higher doses required than for U-87 MG) | IC50 ([4]; 2D U-87 MG, 72 h, read-out: Cisplatin IC50 (Mean ± SEM)) | sensitivity to cisplatin ([4]; 2D culture, 72 hours) | cell viability (in comparison to an untreated control sample) ([5]; 0.2 μM doxorubicin) | cell viability (in comparison to an untreated control sample) ([5]; 1.0 μM doxorubicin) | IC50 ([5]; 2D culture, 72 hours) | LDH release (cytotoxicity) [6] | effect on cell viability ([7]; 1.0 μM doxorubicin) | viability at 0.2 µM ([7]; Homo sapiens, MDA-MB-231, 0.2 μM doxorubicin, 72 h, 15-day old construct, read-out: cell viability (in comparison to an untreated control sample)) | viability at 1 µM ([7]; Homo sapiens, MDA-MB-231, 1.0 μM doxorubicin, 72 h, 15-day old construct, read-out: cell viability (in comparison to an untreated control sample))
1 | N.N.[Cl][Pt][Cl] [Cisplatin] | > 200 µM | > 200 µM | effective | 111 µM | 20.1 ± 3.5 µM | sensitive | 12.9 ± 2.5 µM | sensitive |  |  |  |  |  |  | 
2 | COc1cccc2c1C(=O)c1c(O)c3c(c(O)c1C2=O)C[C@@](O)(C(=O)CO)C[C@@H]3O[C@H]1C[C@H](N)[C@H](O)[C@H](C)O1 [doxorubicin, Doxorubicin] |  |  |  |  |  |  |  |  | ~40% | <14% | 80 ± 20 nM | increasing trend | significantly reduces cell viability | ~84% | ~35%
